This note sets out measurements from ChEMBL document CHEMBL1201862, “PubChem BioAssay data set” (2004).

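Growth conditions: 96-well plates. Treatment: test compound, 48 hours, 5 concentrations. Analysis: linear interpolation between bracketing concentrations; unreached endpoints set to highest concentration. GI50 is the concentration that inhibits growth by half.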 Active and inactive are the calls of the source. No stated cut-off is given here; in the data, active = GI50 up to about 1.1 µM and inactive = higher.

Test systems include 786-0; CCRF-CEM; HCT-15; HL-60; M14; MDA-MB-435; MOLT-4; Malme-3M; NCI-H23; NCI-H460; SF-268; SF-295; SK-MEL-28; SK-MEL-5; SK-OV-3; SNB-19; TK-10; U-251; UACC-62; UO-31.
Common to all, as to experiment: NCI-60 cell line screen, 48 h

For the compound `OC[C@]1(n2nc3ccccc3n2)OC[C@@H]1c1ccccc1`, the GI50 in the assay with 786-0 is 34.8 µM (inactive); in the assay on CCRF-CEM it was 36.1 µM (inactive); with HCT-15, 42.1 µM; with HL-60, 31.4 µM (inactive); with M14 it was 90.6 µM (inactive); in the assay on MDA-MB-435, 32.2 µM (inactive). Also, the GI50 in the assay with MOLT-4 is 33.7 µM (inactive); in the assay with Malme-3M, 19.4 µM (inactive); with NCI-H23, 48.2 µM (inactive); in the assay with NCI-H460, 76.2 µM (inactive); with SF-268, 30.8 µM (inactive); with SF-295 it was 83.4 µM (inactive). Besides, the GI50 with SK-MEL-28 was 28.2 µM (inactive); in the assay with SK-MEL-5, 83.2 µM (inactive); with SK-OV-3, > 100 µM (inactive); with SNB-19 it was > 100 µM (inactive); with TK-10, 60.4 µM (inactive); with U-251 it was 48.4 µM (inactive). Moreover, the figures for the GI50 in the assay on UACC-62 and with UO-31 were 43.3 µM (inactive) and 95.3 µM (inactive), respectively.
As to `CC(=O)N(C(C)=O)n1c(Cc2ccc(Cl)cc2)n[nH]c1=O`, the GI50 in the assay on 786-0 is > 100 µM (inactive); with CCRF-CEM it was > 100 µM (inactive); with HCT-15 it was above 100 µM; with HL-60, > 100 µM (inactive); in the assay with M14, > 100 µM (inactive); in the assay with MDA-MB-435, > 100 µM (inactive). Moreover, the GI50 was > 100 µM (inactive) in the assay on MOLT-4; > 52.7 µM (inactive) with Malme-3M; > 100 µM (inactive) in the assay with NCI-H23; > 100 µM (inactive) in the assay with NCI-H460; > 100 µM (inactive) with SF-268; > 64.4 µM (inactive) in the assay with SF-295. Moreover, the GI50 in the assay on SK-MEL-28, in the assay on SK-MEL-5, in the assay with SK-OV-3, with SNB-19, in the assay on TK-10 and in the assay on U-251 was > 100 µM (inactive) in each case. Also, the GI50 in the assay with UACC-62 and in the assay with UO-31 was > 100 µM (inactive) throughout.
Regarding `O=C(c1no[n+]([O-])c1C(=O)c1csc2ccccc12)c1csc2ccccc12`, the GI50 was 0.27 µM (active) in the assay on 786-0; 0.0834 µM (active) in the assay on CCRF-CEM; 4.57 µM in the assay with HCT-15; 0.0246 µM (active) in the assay with HL-60; 9.04 µM (inactive) in the assay on M14; 8.93 µM (inactive) with MDA-MB-435. Further, the GI50 in the assay with MOLT-4 is 0.678 µM (active); with Malme-3M, 3.19 µM (inactive); in the assay on NCI-H23, 14.1 µM (inactive); in the assay with NCI-H460, 13.2 µM (inactive); with SF-268 it was 6.27 µM (inactive); with SF-295, 14.6 µM (inactive). In addition, the GI50 with SK-MEL-28 was 4.09 µM (inactive); in the assay with SK-MEL-5, 12.8 µM (inactive); in the assay on SK-OV-3, 16.1 µM (inactive); in the assay with SNB-19, 16.9 µM (inactive); in the assay on TK-10, 1.99 µM (inactive); with U-251, 9.95 µM (inactive). The GI50 in the assay with UACC-62 was 10.9 µM (inactive); in the assay with UO-31, 0.505 µM (active).
As to `CCCCCCCc1c(Cl)nc(Cl)nc1Cl`, the GI50 with 786-0 is 3.56 µM (inactive); in the assay on CCRF-CEM it was 0.494 µM (active); in the assay on HCT-15, 3.66 µM; in the assay with HL-60 it was 2.45 µM (inactive); in the assay with M14, 2.13 µM (inactive); with MDA-MB-435 it was 2.65 µM (inactive). In addition, the GI50 in the assay with MOLT-4 was 1.15 µM (inactive); in the assay with Malme-3M it was 3.01 µM (inactive); in the assay with NCI-H23 it was 3.72 µM (inactive); in the assay with NCI-H460 it was 12.8 µM (inactive); with SF-268 it was 4.66 µM (inactive); in the assay on SF-295 it was 16.9 µM (inactive). The GI50 in the assay on SK-MEL-28 was 7.11 µM (inactive); in the assay on SK-MEL-5, 4.31 µM (inactive); with SK-OV-3 it was 7.43 µM (inactive); with SNB-19, 11.2 µM (inactive); in the assay on TK-10 it was 13.6 µM (inactive); in the assay on U-251, 4.89 µM (inactive). For the same compound, the GI50 in the assay with UACC-62 and in the assay with UO-31 was 5.82 µM (inactive) throughout.
`C=C[C@@]1(C)CC2CC[C@]3(C)C(C)=CC(=O)CC3[C@]2(C)CC1O` (stereo not given in full): the GI50 is > 100 µM (inactive) in the assay with 786-0; 38.3 µM (inactive) in the assay with CCRF-CEM; above 100 µM in the assay with HCT-15; 32.7 µM (inactive) in the assay on HL-60; > 100 µM (inactive) in the assay on M14; > 100 µM (inactive) in the assay on MDA-MB-435. Moreover, the GI50 in the assay on MOLT-4 is 83.2 µM (inactive); with Malme-3M, > 100 µM (inactive); with NCI-H23, > 100 µM (inactive); with NCI-H460, > 100 µM (inactive); with SF-268, > 100 µM (inactive); in the assay on SF-295, > 100 µM (inactive). Also, the GI50 with SK-MEL-28, in the assay with SK-MEL-5, in the assay with SK-OV-3, in the assay with SNB-19, with TK-10 and with U-251 was > 100 µM (inactive) in each case. Further, the GI50 in the assay on UACC-62 and in the assay on UO-31 was > 100 µM (inactive) in each case.
On to `O=S(=O)(O)c1ccc(/N=N/c2ccc(/N=N/c3c(O)ccc4cc(S(=O)(=O)O)ccc34)cc2)cc1`, for which the GI50 is > 100 µM (inactive) in the assay with 786-0; > 100 µM (inactive) in the assay with CCRF-CEM; above 100 µM in the assay with HCT-15; > 100 µM (inactive) in the assay on HL-60; > 100 µM (inactive) in the assay on M14; > 100 µM (inactive) in the assay on MDA-MB-435. Further, the GI50 in the assay on MOLT-4, in the assay on Malme-3M, with NCI-H23, with NCI-H460, in the assay with SF-268 and in the assay with SF-295 was > 100 µM (inactive) in each case. For the same compound, the GI50 in the assay with SK-MEL-28, with SK-MEL-5, with SK-OV-3, in the assay on SNB-19, in the assay with TK-10 and in the assay with U-251 was > 100 µM (inactive) throughout. Moreover, the GI50 with UACC-62 is > 100 µM (inactive); in the assay on UO-31 it was 53.3 µM (inactive).
Consider `CCC1CN2CCc3c([nH]c4ccccc34)[C@@](C(=O)OC)(c3cc4c(cc3OC)N(C)C3C(O)(C(=O)OC)C(C(=O)OC)C5(CC)C=CCN6CCC43C65)C[C@@H](C2)[C@@H]1C(C)(C)C` (stereo not given in full), for which the GI50 with 786-0 was 0.439 µM (active); in the assay with CCRF-CEM, 0.348 µM (active); in the assay with HCT-15, 0.396 µM; with HL-60 it was 0.305 µM (active); in the assay with M14, 0.401 µM (active); with MDA-MB-435 it was 0.196 µM (active). Moreover, the GI50 is 0.479 µM (active) with MOLT-4; 0.486 µM (active) in the assay on Malme-3M; 0.352 µM (active) in the assay on NCI-H23; 0.393 µM (active) with NCI-H460; 0.615 µM (active) in the assay with SF-268; 0.226 µM (active) in the assay with SF-295. In addition, the GI50 in the assay with SK-MEL-28 was 0.652 µM (active); in the assay on SK-MEL-5, 0.274 µM (active); with SK-OV-3, 1 µM (active); in the assay on SNB-19, 0.337 µM (active); in the assay on TK-10, 1.09 µM (active); with U-251 it was 0.417 µM (active). For the same compound, the GI50 in the assay with UACC-62 was 0.494 µM (active); in the assay on UO-31, 1.47 µM (inactive).
`CCOP(=O)(OCC)C(Nc1cccc(F)c1)c1ccc(N(C)C)cc1` (stereo not given): the GI50 in the assay on 786-0 is > 10 µM (inactive); in the assay with CCRF-CEM it was 90.4 µM (inactive); with HCT-15, 78.2 µM; in the assay on HL-60 it was 45.7 µM (inactive); in the assay with M14 it was 74.3 µM (inactive); with MDA-MB-435, > 100 µM (inactive). The GI50 with MOLT-4 was 40.4 µM (inactive); in the assay on Malme-3M, > 100 µM (inactive); in the assay with NCI-H23 it was > 100 µM (inactive); in the assay with NCI-H460, 63 µM (inactive); in the assay on SF-268, > 100 µM (inactive); with SF-295, 57 µM (inactive). The GI50 in the assay with SK-MEL-28 was > 100 µM (inactive); in the assay on SK-MEL-5, 71 µM (inactive); with SK-OV-3, > 100 µM (inactive); in the assay on SNB-19, > 100 µM (inactive); in the assay on TK-10, > 100 µM (inactive); in the assay on U-251 it was > 100 µM (inactive). Also, the figures for the GI50 with UACC-62 and in the assay on UO-31 were 50.4 µM (inactive) and > 100 µM (inactive), respectively.
In the case of `CCOC(=O)c1cc(C2=CCNC2=O)c(-c2cc(C)no2)[nH]1`, the GI50 in the assay on 786-0 was 40 µM (inactive); in the assay with CCRF-CEM, 34 µM (inactive); with HCT-15, 92.9 µM; in the assay with HL-60, 22.3 µM (inactive); with M14 it was 51.1 µM (inactive); with MDA-MB-435 it was > 100 µM (inactive). The GI50 with MOLT-4 was 25.1 µM (inactive); in the assay on Malme-3M, > 100 µM (inactive); with NCI-H23 it was > 100 µM (inactive); in the assay with NCI-H460, 63.4 µM (inactive); with SF-268 it was > 100 µM (inactive); in the assay on SF-295, 29.8 µM (inactive). For the same compound, the GI50 with SK-MEL-28 was 92.5 µM (inactive); in the assay on SK-MEL-5, 66.7 µM (inactive); with SK-OV-3, 31.3 µM (inactive); in the assay with SNB-19, > 100 µM (inactive); in the assay with TK-10, > 100 µM (inactive); in the assay with U-251 it was 62.5 µM (inactive). In addition, the GI50 was 39.1 µM (inactive) in the assay with UACC-62 and 27.7 µM (inactive) with UO-31.
On to `CC(C)c1ccc(/C=C2/C=C(c3ccc4ccccc4c3)OC2=O)cc1`, for which the GI50 with 786-0 was > 100 µM (inactive); in the assay on CCRF-CEM, 2.56 µM (inactive); in the assay with HCT-15, 72.3 µM; in the assay on HL-60 it was 19.4 µM (inactive); in the assay with M14, 41 µM (inactive); in the assay on MDA-MB-435, 41.3 µM (inactive). Besides, the GI50 is 21.2 µM (inactive) in the assay with MOLT-4; 15.8 µM (inactive) in the assay with Malme-3M; 38.7 µM (inactive) in the assay with NCI-H23; > 78.2 µM (inactive) in the assay with NCI-H460; > 100 µM (inactive) in the assay on SF-268; > 94.6 µM (inactive) in the assay with SF-295. Besides, the GI50 in the assay with SK-MEL-28 is 55.5 µM (inactive); with SK-MEL-5 it was 15.2 µM (inactive); in the assay on SK-OV-3, > 100 µM (inactive); in the assay on SNB-19, > 100 µM (inactive); with TK-10, > 70.3 µM (inactive); in the assay on U-251, 39.6 µM (inactive). Further, the GI50 with UACC-62 is 35.4 µM (inactive); in the assay with UO-31 it was > 76.2 µM (inactive).
